From patent US11464770B2, “Anticancer pharmaceutical composition” (NATIONAL CANCER CENTER, priority 2016, dated 2022)
Like-named read-outs stand apart in the source and are kept apart here.

Legend:
[1] = system: breast cancer cell lines (e.g. MDA-MB-231, SK-BR-3, MDA-MB-468, HCC1954); experiment: Cell based assay, cell viability (CellTiter-Glo), breast cancer cell lines
Method: (§1) Commercially available bladder cancer, prostate cancer, lung cancer, breast cancer, blood cancer, pancreatic cancer, colorectal cancer, brain cancer, neuroblastoma, melanoma, liver cancer, cervical carcinoma, ovarian cancer, renal cancer, and papilloma cell lines were each treated with trypsin-EDTA and cultured, followed by being seeded in each well of a 96 well plate. After 24 hours of treatment at constant temperature, the respective cells were treated with the candidate compound so that a final concentration became 0 to 2 μM. The treated cells were additionally cultured for 72 hours, and cell viability was measured by using an ATP detection method (CellTiter-Glo® Luminescent Cell Viability Assay, Promega).

[2] = system: ovarian cancer cell lines; experiment: Cell based assay, cell viability (CellTiter-Glo), ovarian cancer cell lines; conditions: Homo sapiens; OVCAR-3 cells
Method: as §1

[3] = system: melanoma cell lines; experiment: Cell based assay, cell viability (CellTiter-Glo), melanoma cell lines; conditions: Homo sapiens; LOX-IMVI cell line
Method: as §1

[4] = Homo sapiens, BT-20 cells, 72 hours treatment, CellTiter-Glo cell viability, read-out: IC50, Breast cancer cell line BT-20
[5] = Homo sapiens, HCC1395 cells, 72 hours treatment, CellTiter-Glo cell viability, read-out: IC50, Breast cancer cell line HCC1395
[6] = Homo sapiens, HCC1954 cells, 72 hours treatment, CellTiter-Glo cell viability, read-out: IC50, Breast cancer cell line HCC1954
[7] = Homo sapiens, JIMT-1 cells, 72 hours treatment, CellTiter-Glo cell viability, read-out: IC50, Breast cancer cell line JIMT-1
[8] = Homo sapiens, MCF7 cells, 72 hours treatment, CellTiter-Glo cell viability, read-out: IC50, Breast cancer cell line MCF7
[9] = Homo sapiens, MDA-MB-231 cells, 72 hours treatment, CellTiter-Glo cell viability, read-out: IC50, Breast cancer cell line MDA-MB-231
[10] = Homo sapiens, MDA-MB-468 cells, 72 hours treatment, CellTiter-Glo cell viability, read-out: IC50, Breast cancer cell line MDA-MB-468
[11] = Homo sapiens, SK-BR-3 cells, 72 hours treatment, CellTiter-Glo cell viability, read-out: IC50, Breast cancer cell line SK-BR-3
[12] = MDA-MB-231-L/DOX cells, 72 hours treatment, CellTiter-Glo cell viability, read-out: IC50, Breast cancer cell line MDA-MB-231-L/DOX
[13] = Breast cancer cell line MDA-MB-231-L/DOX, 72 hours, CellTiter-Glo, read-out: IC50, MDA-MB-231-L/DOX
[14] = Homo sapiens, Breast cancer cell line BT-20, 72 hours, CellTiter-Glo, read-out: IC50, BT-20
[15] = Homo sapiens, Breast cancer cell line HCC1395, 72 hours, CellTiter-Glo, read-out: IC50, HCC1395
[16] = Homo sapiens, Breast cancer cell line HCC1954, 72 hours, CellTiter-Glo, read-out: IC50, HCC1954
[17] = Homo sapiens, Breast cancer cell line JIMT-1, 72 hours, CellTiter-Glo, read-out: IC50, JIMT-1
[18] = Homo sapiens, Breast cancer cell line MCF7, 72 hours, CellTiter-Glo, read-out: IC50, MCF7
[19] = Homo sapiens, Breast cancer cell line MDA-MB-231, 72 hours, CellTiter-Glo, read-out: IC50, MDA-MB-231
[20] = Homo sapiens, Breast cancer cell line MDA-MB-468, 72 hours, CellTiter-Glo, read-out: IC50, MDA-MB-468
[21] = Homo sapiens, Breast cancer cell line SK-BR-3, 72 hours, CellTiter-Glo, read-out: IC50, SK-BR-3

| SMILES | IC50 [1, 4] [nM] | IC50 [1, 5] [nM] | IC50 [1, 6] [nM] | IC50 [1, 7] [nM] | IC50 [1, 8] [nM] | IC50 [1, 9] [nM] | IC50 [1, 10] [nM] | IC50 [1, 11] [nM] | IC50 [1, 12] [nM] | IC50 [2] [nM] | IC50 [3] [nM] | IC50 [1, 13] [nM] | IC50 [1, 14] [nM] | IC50 [1, 15] [nM] | IC50 [1, 16] [nM] | IC50 [1, 17] [nM] | IC50 [1, 18] [nM] | IC50 [1, 19] [nM] | IC50 [1, 20] [nM] | IC50 [1, 21] [nM] |
| --- | --- | --- | --- | --- | --- | --- | --- | --- | --- | --- | --- | --- | --- | --- | --- | --- | --- | --- | --- | --- |
| CC(C)C(=O)c1c([S+]([O-])Cc2ccc(SC(F)(F)F)cc2)[nH]c2c(F)ccc(F)c2c1=O (stereo not shown) [Compound 85, 5,8-difluoro-3-isobutyryl-2-((4-((trifluoromethyl)thio)benzyl)sulfinyl)quinolin-4(1H)-one] | > 2000 | > 10000 | > 2000 | > 10000 | > 2000 | > 2000 | > 2000 | > 2000 | > 2000 | > 2000 | > 2000 | – | – | – | – | – | – | – | – | – |
| O=C(c1c([S+]([O-])Cc2ccc(SC(F)(F)F)cc2)[nH]c2c(Br)ccc(Cl)c2c1=O)C1CC1 (stereo not shown) [Compound 101, 8-bromo-5-chloro-3-(cyclopropanecarbonyl)-2-((4-((trifluoromethyl)thio)benzyl)sulfinyl)quinolin-4(1H)-one] | > 2000 | > 10000 | 1220 | > 10000 | > 2000 | > 2000 | 1670 | 1670 | > 2000 | 1990 | > 2000 | – | – | – | – | – | – | – | – | – |
| CC(=O)c1c([S+]([O-])Cc2nonc2C)[nH]c2c(Br)ccc(Cl)c2c1=O (stereo not shown) [Compound 106, 3-acetyl-8-bromo-5-chloro-2-(((4-methyl-1,2,5-oxadiazol-3-yl)methyl)sulfinyl)quinolin-4(1H)-one] | > 2000 | > 10000 | > 2000 | > 10000 | > 2000 | > 2000 | > 2000 | > 2000 | > 2000 | > 2000 | > 2000 | – | – | – | – | – | – | – | – | – |
| CC(=O)c1c(SCc2ccccc2)nc2c(Br)ccc(Cl)c2c1O [Compound 52, 1-(2-(benzylthio)-8-bromo-5-chloro-4-hydroxyquinolin-3-yl)ethan-1-one] | – | – | – | – | – | – | – | – | – | > 2000 | > 2000 | > 2000 | > 2000 | > 10000 | > 2000 | > 10000 | > 2000 | > 2000 | > 2000 | > 2000 |
| COCSc1[nH]c2c(Br)ccc(Cl)c2c(=O)c1C(C)=O [Compound 61, 3-acetyl-8-bromo-5-chloro-2-((methoxymethyl)thio)quinolin-4(1H)-one] | – | – | – | – | – | – | – | – | – | > 2000 | > 2000 | > 2000 | > 2000 | > 10000 | > 2000 | > 10000 | > 2000 | > 2000 | > 2000 | > 2000 |
| CC(=O)c1c([S+]([O-])Cc2ccccc2)nc2c(Br)ccc(Cl)c2c1O (stereo not shown) [Compound 4] | – | – | – | – | – | – | – | – | – | 810 | 1090 | – | > 2000 | > 10000 | > 2000 | > 10000 | > 2000 | > 2000 | > 2000 | 910 |
| CCS(=O)(=O)n1c([S+](C)[O-])c(C(C)=O)c(=O)c2c(Cl)ccc(Br)c21 (stereo not shown) [Compound 39, 3-acetyl-8-bromo-5-chloro-1-(ethylsulfonyl)-2-(methylsulfinyl)quinolin-4(1H)-one] | – | – | – | – | – | – | – | – | – | > 2000 | > 2000 | > 2000 | > 2000 | > 10000 | > 2000 | > 10000 | > 2000 | > 2000 | > 2000 | > 2000 |
| CC(=O)c1c(SCc2ccccc2)n(C(=O)c2ccc(Br)cc2)c2c(Br)ccc(Cl)c2c1=O [Compound 23, 3-acetyl-2-(benzylthio)-8-bromo-1-(4-bromobenzoyl)-5-chloroquinolin-4(1H)-one] | – | – | – | – | – | – | – | – | – | > 2000 | > 2000 | > 2000 | > 2000 | > 10000 | > 2000 | > 10000 | > 2000 | > 2000 | > 2000 | > 2000 |
| CC(=O)c1c(SCc2cc(F)cc(F)c2)[nH]c2c(Br)ccc(Cl)c2c1=O [Compound 45, 3-acetyl-8-bromo-5-chloro-2-((3,5-difluorobenzyl)thio)quinolin-4(1H)-one] | – | – | – | – | – | – | – | – | – | > 2000 | > 2000 | > 2000 | > 2000 | > 10000 | > 2000 | > 10000 | > 2000 | > 2000 | > 2000 | > 2000 |
| COCCNc1ccc(C[S+]([O-])c2[nH]c3c(Br)ccc(Cl)c3c(=O)c2C(C)=O)cn1 (stereo not shown) [Compound 105, 3-acetyl-8-bromo-5-chloro-2-(((6-((2-methoxyethyl)amino)pyridin-3-yl)methyl)sulfinyl)quinolin-4(1H)-one] | > 2000 | > 10000 | > 2000 | > 10000 | > 2000 | > 2000 | > 2000 | > 2000 | > 2000 | > 2000 | > 2000 | – | – | – | – | – | – | – | – | – |
| CC(=O)c1c([S+]([O-])Cc2cnc3[nH]ccc3c2)[nH]c2c(Br)ccc(Cl)c2c1=O (stereo not shown) [Compound 107, 2-(((1H-pyrrolo[2,3-b]pyridin-5-yl)methyl)sulfinyl)-3-acetyl-8-bromo-5-chloroquinolin-4(1H)-one] | > 2000 | > 10000 | > 2000 | > 10000 | > 2000 | > 2000 | > 2000 | > 2000 | > 2000 | > 2000 | > 2000 | – | – | – | – | – | – | – | – | – |
| CC(=O)c1c(Sc2ccc(Br)cc2)[nH]c2c(Br)ccc(Cl)c2c1=O [Compound 16, 3-acetyl-8-bromo-2-((4-bromophenyl)thio)-5-chloroquinolin-4(1H)-one] | – | – | – | – | – | – | – | – | – | > 2000 | > 2000 | > 2000 | > 2000 | > 10000 | > 2000 | > 10000 | > 2000 | > 2000 | > 2000 | > 2000 |
| COc1cccc2[nH]c(SCc3ccc(S(F)(F)(F)(F)F)cc3)c(C(C)=O)c(=O)c12 [Compound 92, 3-acetyl-5-methoxy-2-((4-(pentafluoro--sulfanyl)benzyl)thio)quinolin-4(1H)-one] | > 2000 | > 10000 | > 2000 | > 10000 | > 2000 | > 2000 | > 2000 | > 2000 | > 2000 | > 2000 | > 2000 | – | – | – | – | – | – | – | – | – |
| CC(=O)c1c([S+]([O-])Cc2ccc(S(F)(F)(F)(F)F)cc2)[nH]c2c(F)ccc(F)c2c1=O (stereo not shown) [Compound 80, 3-acetyl-5,8-difluoro-2-((4-(pentafluoro--sulfanyl)benzyl)sulfinyl)quinolin-4(1H)-one] | – | – | – | – | – | – | – | – | – | > 2000 | > 2000 | > 2000 | > 2000 | > 10000 | > 2000 | > 10000 | > 2000 | > 2000 | > 2000 | > 2000 |
| CC(=O)c1c(SC(C)C)[nH]c2c(Br)ccc(Cl)c2c1=O [Compound 24, 3-acetyl-8-bromo-5-chloro-2-(isopropylthio)quinolin-4(1H)-one] | – | – | – | – | – | – | – | – | – | > 2000 | > 2000 | > 2000 | > 2000 | > 10000 | > 2000 | > 10000 | > 2000 | > 2000 | > 2000 | > 2000 |
| O=C(c1ccccc1)c1c([S+]([O-])Cc2ccc(S(F)(F)(F)(F)F)cc2)[nH]c2c(F)ccc(F)c2c1=O (stereo not shown) [Compound 87, 3-benzoyl-5,8-difluoro-2-((4-(pentafluoro--sulfanyl)benzyl)sulfinyl)quinolin-4(1H)-one] | > 2000 | > 10000 | > 2000 | > 10000 | > 2000 | > 2000 | > 2000 | > 2000 | > 2000 | > 2000 | > 2000 | – | – | – | – | – | – | – | – | – |
| CC(=O)c1c([S+](C)[O-])n(S(=O)(=O)C(F)(F)F)c2c(Br)ccc(Cl)c2c1=O (stereo not shown) [Compound 36, 3-acetyl-8-bromo-5-chloro-2-(methylsulfinyl)-1-((trifluoromethyl)sulfonyl)quinolin-4(1H)-one] | – | – | – | – | – | – | – | – | – | > 2000 | > 2000 | > 2000 | > 2000 | > 10000 | > 2000 | > 10000 | > 2000 | > 2000 | > 2000 | > 2000 |
| CC(=O)c1c([S+]([O-])Cc2cccc(C#N)c2)[nH]c2c(Br)ccc(Cl)c2c1=O (stereo not shown) [Compound 28, 3-(((3-acetyl-8-bromo-5-chloro-4-oxo-1,4-dihydroquinolin-2-yl)sulfinyl)methyl)benzonitrile] | – | – | – | – | – | – | – | – | – | 690 | 880 | > 2000 | > 2000 | > 10000 | > 2000 | > 10000 | > 2000 | 1410 | > 2000 | 660 |
| CC(=O)c1c([S+]([O-])c2ccccc2)[nH]c2c(Br)ccc(Cl)c2c1=O (stereo not shown) [Compound 13, 3-acetyl-8-bromo-5-chloro-2-(phenylsulfinyl)quinolin-4(1H)-one] | – | – | – | – | – | – | – | – | – | > 2000 | > 2000 | > 2000 | > 2000 | > 10000 | > 2000 | > 10000 | > 2000 | > 2000 | > 2000 | > 2000 |
